Here are results for 28 compounds from patent US20240246979A1, “cGAS INHIBITORS” (Eli Lilly and Company, priority 2022, published 2024).

Test [1] has as its target T1, cGAS (Homo sapiens, UniProt Q8N884). Nature of the test: Cellular assay to measure cGAS activity (IFNb AlphaLISA in THP1 cells stimulated by RDG-Adenovirus-GFP). In kind it is cell-based. Further details: host or cells: THP1 cells differentiated with PMA and stimulated with RDG-Adenovirus-GFP. Conditions: PMA-differentiated THP1 cells, RDG-Adenovirus-GFP at 1000 MOI; inhibition of IFNb production as marker for cGAS activity. The procedure, abridged:
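PMA-differentiated THP1 cells were infected with RDG-Adenovirus-GFP at 1000 MOI for 4 h, then exposed overnight to test compounds. IFNb in the supernatant was quantified by AlphaLISA as a cGAS activity marker, and IC50 was fitted with a 4-parameter logistic equation.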
(Alpha assays give light when donor and acceptor beads are brought close together.)

The target of test [2] is T1, cGAS. Briefly: In vitro inhibition assay of cGAS activity (cGAMP production, RapidFire mass spectrometry). In kind it is biochemical. More on the design: Insert cDNA encoding full-length of human cGAS; His6; made in house; host or cells: E. coli BL21(DE3). Conditions: 10 nM recombinant human cGAS, 60 nM 75-bp dsDNA, 50 μM ATP, 50 μM GTP, 3 hrs. The procedure, abridged: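 His6-tagged full-length human cGAS (10 nM, E. coli-expressed) was incubated for 3 hrs at ambient temperature with 60 nM 75-bp dsDNA, 50 μM ATP and 50 μM GTP in Tris pH 7.5/MgCl2 buffer with compound dilutions. cGAMP was quantified by RapidFire mass spectrometry against an internal standard, and IC50 was obtained by 4-parameter logistic fit.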

T1 sequence (Q8N884 whole entry): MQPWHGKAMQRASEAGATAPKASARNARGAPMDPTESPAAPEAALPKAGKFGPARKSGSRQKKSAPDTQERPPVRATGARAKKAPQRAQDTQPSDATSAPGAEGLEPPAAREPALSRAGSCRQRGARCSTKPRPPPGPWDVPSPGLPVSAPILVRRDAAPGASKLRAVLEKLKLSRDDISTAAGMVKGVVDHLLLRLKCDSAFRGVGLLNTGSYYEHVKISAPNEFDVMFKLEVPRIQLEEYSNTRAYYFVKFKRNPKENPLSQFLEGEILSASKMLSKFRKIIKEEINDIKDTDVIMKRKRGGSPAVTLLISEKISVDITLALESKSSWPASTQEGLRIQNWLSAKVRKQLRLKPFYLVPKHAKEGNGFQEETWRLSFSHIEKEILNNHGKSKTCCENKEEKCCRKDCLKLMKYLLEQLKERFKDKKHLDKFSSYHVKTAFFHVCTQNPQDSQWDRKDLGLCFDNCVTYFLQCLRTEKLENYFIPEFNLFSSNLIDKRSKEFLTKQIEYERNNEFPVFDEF

For the compound `C[C@H]1C(=O)NCC(C)(C)c2c1c1c(NC(=O)CO)cc(Cl)c(Cl)c1n2C` (single isomer, unassigned) [Example 135, (R)—N-(7,8-Dichloro-1,5,5,6-tetramethyl-2-oxo-1,2,3,4,5,6-hexahydroazepino[4,5-b]indol-10-yl)-2-hydroxyacetamide or (S)—N-(7,8-Dichloro-1,5,5,6-tetramethyl-2-oxo-1,2,3,4,5,6-hexahydroazepino[4,5-b]indol-10-yl)-2-hydroxyacetamide], the IC50 in test [1] is at least 10 µM; in test [2], 20.2 µM.

Regarding `C[C@@H]1C(=O)NCCc2[nH]c3c(Cl)c(Cl)cc(OCCCO)c3c21` (single isomer, unassigned) [Example 14A], the IC50 is 0.344 µM in test [1] and 0.0073 µM in test [2].

Turning to `COCC[C@H]1CNC(=O)Cc2c1[nH]c1c(Cl)c(Cl)cc(-c3cnn(C)n3)c21` (single isomer, unassigned) [Example 168], the IC50 in test [1] was determined as 4.6 µM; in test [2], 0.109 µM.

As to `Cn1ncc(-c2cc(Cl)c(F)c3[nH]c4c(c23)CC(=O)NCC4)n1` [Example 1, 8-Chloro-7-fluoro-10-(2-methyl-2H-1,2,3-triazol-4-yl)-3,4,5,6-tetrahydroazepino[4,5-b]indol-2(1H)-one], the results for the 50% inhibitory concentration (IC50) in test [1] and in test [2] were 2.64 µM and 0.0334 µM, respectively.

With `C[C@H](O)C(=O)Nc1cc(Cl)c(Cl)c2[nH]c3c(c12)[C@@H](C)C(=O)NCC3` (single isomer, unassigned) [Example 42], the IC50 was over 10 µM in test [1] and 6.44 µM in test [2].

On to `CC1C(=O)NCCc2[nH]c3c(Cl)c(Cl)c(F)c(NCCO)c3c21` (racemic) [Example 52, 7,8-Dichloro-9-fluoro-10-((2-hydroxyethyl)amino)-1-methyl-3,4,5,6-tetrahydroazepino[4,5-b]indol-2(1H)-one], for which the IC50 in test [1] was determined as 2.22 µM; in test [2] it was 0.0291 µM.

For the compound `CCCC1CNC(=O)Cc2c1[nH]c1c(Cl)c(Cl)cc(-c3cnn(C)n3)c21` (centres unmarked) [Example 164, 7,8-Dichloro-10-(2-methyl-2H-1,2,3-triazol-4-yl)-5-propyl-3,4,5,6-tetrahydroazepino[4,5-b]indol-2(1H)-one], the IC50 amounted to 1.38 µM in test [1] and 0.0189 µM in test [2].

Turning to `CC1C(=O)NCCc2[nH]c3c(Cl)c(Cl)cc(OCC(F)(F)CO)c3c21` (centres unmarked) [Example 72, 7,8-Dichloro-10-(2,2-difluoro-3-hydroxypropoxy)-1-methyl-3,4,5,6-tetrahydroazepino[4,5-b]indol-2(1H)-one], the IC50 in test [1] was 0.662 µM; in test [2], 0.0233 µM.

Take `C[C@@H]1C(=O)NCCc2c1c1c(NC(=O)CO)cc(Cl)c(Cl)c1n2C` (single isomer, unassigned) [Example 93]: the half-maximal inhibitory concentration (IC50) in test [1] is over 10 µM; in test [2], 2.76 µM.

Consider `C[C@@H]1CNC(=O)[C@@H](C)c2c1[nH]c1c(Cl)c(Cl)cc(NC(=O)CO)c21` (single isomer, unassigned) [Example 161, N-((1S,5R)-7,8-Dichloro-1,5-dimethyl-2-oxo-1,2,3,4,5,6-hexahydroazepino[4,5-b]indol-10-yl)-2-hydroxyacetamide or N-((1R,5S)-7,8-Dichloro-1,5-dimethyl-2-oxo-1,2,3,4,5,6-hexahydroazepino[4,5-b]indol-10-yl)-2-hydroxyacetamide], for which the IC50 in test [1] is over 10 µM; in test [2] it was 3.73 µM.

In the case of `C[C@@H]1C(=O)NCCc2[nH]c3c(Cl)c(Cl)cc(OC[C@@H](C)O)c3c21` (single isomer, unassigned) [Example 83], the values for the half-maximal inhibitory concentration (IC50) in test [1] and in test [2] were over 10 µM and 4.74 µM, respectively.

In the case of `Cn1c2c(c3c(CC#N)cc(Cl)c(Cl)c31)CC(=O)NC[C@H]2CCO` (single isomer, unassigned) [Example 123], the IC50 in test [1] amounted to 0.181 µM; in test [2] it was 0.0141 µM.

Consider `C[C@@H]1C(=O)NCCc2[nH]c3c(Cl)c(Cl)cc(OCCCO)c3c21` (single isomer, unassigned) [Example 14B], for which the IC50 in test [1] was 4.45 µM; in test [2], 0.302 µM.

With `CC1C(=O)NCCc2[nH]c3c(Cl)c(Cl)cc(OCC(F)F)c3c21` (racemic) [Example 76, 7,8-Dichloro-10-(2,2-difluoroethoxy)-1-methyl-3,4,5,6-tetrahydroazepino[4,5-b]indol-2(1H)-one], the figures for the IC50 in test [1] and in test [2] were 1.47 µM and 0.0386 µM, respectively.

`CC1C(=O)NCCc2c1c1c(NCc3cnc[nH]3)cc(Cl)c(Cl)c1n2C` (centres unmarked) [Example 91, 10-(((1H-Imidazol-5-yl)methyl)amino)-7,8-dichloro-1,6-dimethyl-3,4,5,6-tetrahydroazepino[4,5-b]indol-2(1H)-one]: the values for the concentration for half-maximal inhibition (IC50) in test [1] and in test [2] were 1.19 µM and 0.0207 µM, respectively.

For the compound `CC1C(=O)NCCc2c1c1c(NCCO)cc(Cl)c(Cl)c1n2C(F)F` (racemic) [Example 140, 7,8-Dichloro-6-(difluoromethyl)-10-((2-hydroxyethyl)amino)-1-methyl-3,4,5,6-tetrahydroazepino[4,5-b]indol-2(1H)-one], the half-maximal inhibitory concentration (IC50) in test [1] is 1.28 µM; in test [2], 0.0164 µM.

`C[C@@H]1CNC(=O)[C@@H](C)c2c1[nH]c1c(Cl)c(Cl)cc(NC(=O)CO)c21` (single isomer, unassigned) [Example 160, N-((1S,5R)-7,8-Dichloro-1,5-dimethyl-2-oxo-1,2,3,4,5,6-hexahydroazepino[4,5-b]indol-10-yl)-2-hydroxyacetamide or N-((1R,5S)-7,8-Dichloro-1,5-dimethyl-2-oxo-1,2,3,4,5,6-hexahydroazepino[4,5-b]indol-10-yl)-2-hydroxyacetamide]: the half-inhibitory concentration (IC50) stood at 0.256 µM in test [1] and 0.013 µM in test [2].

`O=C1Cc2c([nH]c3c(Cl)c(Cl)cc(OCCCO)c23)CCN1` [Example 23, 7,8-Dichloro-10-(3-hydroxypropoxy)-3,4,5,6-tetrahydroazepino[4,5-b]indol-2(1H)-one]: the IC50 amounted to 7.79 µM in test [1] and 0.118 µM in test [2].

Regarding `C[C@H](O)C(=O)Nc1cc(Cl)c(Cl)c2[nH]c3c(c12)[C@@H](C)C(=O)NCC3(C)C` (single isomer, unassigned) [Example 182, (S)—N—((R)-7,8-Dichloro-1,5,5-trimethyl-2-oxo-1,2,3,4,5,6-hexahydroazepino[4,5-b]indol-10-yl)-2-hydroxypropanamide or (S)—N—((S)-7,8-dichloro-1,5,5-trimethyl-2-oxo-1,2,3,4,5,6-hexahydroazepino[4,5-b]indol-10-yl)-2-hydroxypropanamide], the IC50 came to 1.18 µM in test [1] and 0.0456 µM in test [2].

`C[C@@H]1C(=O)NCCc2[nH]c3c(Cl)c(Cl)cc(OC[C@@H](C)O)c3c21` (single isomer, unassigned) [Example 82]: the IC50 in test [1] is 0.91 µM; in test [2] it was 0.0325 µM.

In the case of `CCC1CNC(=O)Cc2c1[nH]c1c(Cl)c(Cl)cc(-c3cnn(C)n3)c21` (centres unmarked) [Example 162, 7,8-Dichloro-5-ethyl-10-(2-methyl-2H-1,2,3-triazol-4-yl)-3,4,5,6-tetrahydroazepino[4,5-b]indol-2(1H)-one], the 50% inhibitory concentration (IC50) came to 1.28 µM in test [1] and 0.0487 µM in test [2].

For `CC1C(=O)NCCc2[nH]c3c(Cl)c(Cl)cc(OCCF)c3c21` (centres unmarked) [Example 75, 7,8-Dichloro-10-(2-fluoroethoxy)-1-methyl-3,4,5,6-tetrahydroazepino[4,5-b]indol-2(1H)-one], the IC50 is 1.15 µM in test [1] and 0.019 µM in test [2].

As for `Nc1noc(-c2cc(Cl)c(Cl)c3[nH]c4c(c23)CC(=O)NCC4)n1` [Example 33, 10-(3-Amino-1,2,4-oxadiazol-5-yl)-7,8-dichloro-3,4,5,6-tetrahydroazepino[4,5-b]indol-2(1H)-one], the figures for the IC50 in test [1] and in test [2] were 1.2 µM and 0.0204 µM, respectively.

For `CC1C(=O)NCCc2c1c1c(OCC#N)cc(Cl)c(Cl)c1n2C` (centres unmarked) [Example 78, 2-((7,8-Dichloro-1,6-dimethyl-2-oxo-1,2,3,4,5,6-hexahydroazepino[4,5-b]indol-10-yl)oxy)acetonitrile], the IC50 in test [1] stood at 0.81 µM; in test [2], 0.0465 µM.

`O=C1Cc2c([nH]c3c(Cl)c(Cl)cc(-c4nc(CO)no4)c23)CCN1` [Example 26, 7,8-Dichloro-10-(3-(hydroxymethyl)-1,2,4-oxadiazol-5-yl)-3,4,5,6-tetrahydroazepino[4,5-b]indol-2(1H)-one]: the IC50 was over 10 µM in test [1] and 0.133 µM in test [2].

In the case of `CC(C)(O)C[C@@H]1CNC(=O)Cc2c1[nH]c1c(Cl)c(Cl)cc(OCC#N)c21` (single isomer, unassigned) [Example 108], the results for the IC50 in test [1] and in test [2] were 0.676 µM and 0.0257 µM, respectively.

For `CC(O)COc1cc(Cl)c(Cl)c2[nH]c3c(c12)CC(=O)NCC3` (centres unmarked) [Example 87, 7,8-Dichloro-10-(2-hydroxypropoxy)-3,4,5,6-tetrahydroazepino[4,5-b]indol-2(1H)-one], the IC50 in test [1] worked out at 5.97 µM; in test [2] it was 0.036 µM.

Take `COCCC1CNC(=O)Cc2c1[nH]c1c(Cl)c(Cl)cc(-c3cnn(C)n3)c21` (racemic) [Example 166, 7,8-Dichloro-5-(2-methoxyethyl)-10-(2-methyl-2H-1,2,3-triazol-4-yl)-3,4,5,6-tetrahydroazepino[4,5-b]indol-2(1H)-one]: the values for the IC50 in test [1] and in test [2] were 1.02 µM and 0.0207 µM, respectively.

Usually IC50 stands for the concentration that gives 50% inhibition.
